From paper PMC5564600 (Oncotarget, 2017)
Read-outs that look alike come from different tables or passages of the source.

Key:
Assay in all cases: biochemical
Assay type in all cases: binding
[1] = molecular target: T1, panel of 442 kinases (Homo sapiens, UniProt Q00536); conditions: kinase PCTK1; for remaining activity at 1 µM: read-out: % of control at 1 µM
T1 construct: purchased Ambit Biosciences (scanMAXX KINOMEscan)

[2] = molecular target: T2, panel of 442 kinases (Homo sapiens, UniProt P52564); conditions: kinase MEK6; for remaining activity at 1 µM: read-out: % of control at 1 µM
T2 construct: purchased Ambit Biosciences (scanMAXX KINOMEscan)
T2 sequence (P52564 1-334): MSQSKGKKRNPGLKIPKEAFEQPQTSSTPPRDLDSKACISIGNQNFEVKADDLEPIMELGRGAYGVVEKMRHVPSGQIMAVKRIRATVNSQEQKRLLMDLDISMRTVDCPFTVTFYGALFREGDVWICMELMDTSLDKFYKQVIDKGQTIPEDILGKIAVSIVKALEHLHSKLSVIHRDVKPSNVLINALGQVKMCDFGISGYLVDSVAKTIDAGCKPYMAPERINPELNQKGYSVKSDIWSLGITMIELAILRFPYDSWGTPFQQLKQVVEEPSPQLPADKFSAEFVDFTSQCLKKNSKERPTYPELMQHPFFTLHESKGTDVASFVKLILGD

[3] = molecular target: T3, panel of 442 kinases (Homo sapiens, UniProt Q13554); conditions: CAMK2B; for remaining activity at 1 µM: read-out: % of control at 1 µM
T3 construct: purchased Ambit Biosciences (scanMAXX KINOMEscan)
T3 sequence (Q13554 whole entry): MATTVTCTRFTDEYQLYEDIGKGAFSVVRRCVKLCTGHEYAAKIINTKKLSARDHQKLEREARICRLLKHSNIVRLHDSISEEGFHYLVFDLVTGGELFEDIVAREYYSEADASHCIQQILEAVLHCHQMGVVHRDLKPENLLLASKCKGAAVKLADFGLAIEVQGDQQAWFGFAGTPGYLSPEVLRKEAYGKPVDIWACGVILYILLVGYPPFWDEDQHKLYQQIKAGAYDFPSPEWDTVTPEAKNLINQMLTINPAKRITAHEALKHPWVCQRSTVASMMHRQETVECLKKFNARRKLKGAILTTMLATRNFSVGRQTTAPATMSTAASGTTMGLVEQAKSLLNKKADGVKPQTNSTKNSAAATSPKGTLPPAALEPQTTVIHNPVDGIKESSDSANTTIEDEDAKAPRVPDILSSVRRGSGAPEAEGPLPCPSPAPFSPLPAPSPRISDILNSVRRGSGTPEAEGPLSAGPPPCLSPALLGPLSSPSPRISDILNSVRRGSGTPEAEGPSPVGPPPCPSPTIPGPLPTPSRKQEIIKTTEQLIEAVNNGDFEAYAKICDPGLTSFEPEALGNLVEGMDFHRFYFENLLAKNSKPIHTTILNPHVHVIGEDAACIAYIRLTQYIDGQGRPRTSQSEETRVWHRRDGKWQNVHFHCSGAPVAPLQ

[4] = molecular target: T4, panel of 442 kinases (Homo sapiens, UniProt P14616); conditions: kinase INSRR; for remaining activity at 1 µM: read-out: % of control at 1 µM
T4 construct: purchased Ambit Biosciences (scanMAXX KINOMEscan)

[5] = molecular target: T5, panel of 442 kinases (Homo sapiens, UniProt Q9NSY1); conditions: BIKE; for remaining activity at 1 µM: read-out: % of control at 1 µM
T5 construct: purchased Ambit Biosciences (scanMAXX KINOMEscan)
T5 sequence (Q9NSY1 whole entry): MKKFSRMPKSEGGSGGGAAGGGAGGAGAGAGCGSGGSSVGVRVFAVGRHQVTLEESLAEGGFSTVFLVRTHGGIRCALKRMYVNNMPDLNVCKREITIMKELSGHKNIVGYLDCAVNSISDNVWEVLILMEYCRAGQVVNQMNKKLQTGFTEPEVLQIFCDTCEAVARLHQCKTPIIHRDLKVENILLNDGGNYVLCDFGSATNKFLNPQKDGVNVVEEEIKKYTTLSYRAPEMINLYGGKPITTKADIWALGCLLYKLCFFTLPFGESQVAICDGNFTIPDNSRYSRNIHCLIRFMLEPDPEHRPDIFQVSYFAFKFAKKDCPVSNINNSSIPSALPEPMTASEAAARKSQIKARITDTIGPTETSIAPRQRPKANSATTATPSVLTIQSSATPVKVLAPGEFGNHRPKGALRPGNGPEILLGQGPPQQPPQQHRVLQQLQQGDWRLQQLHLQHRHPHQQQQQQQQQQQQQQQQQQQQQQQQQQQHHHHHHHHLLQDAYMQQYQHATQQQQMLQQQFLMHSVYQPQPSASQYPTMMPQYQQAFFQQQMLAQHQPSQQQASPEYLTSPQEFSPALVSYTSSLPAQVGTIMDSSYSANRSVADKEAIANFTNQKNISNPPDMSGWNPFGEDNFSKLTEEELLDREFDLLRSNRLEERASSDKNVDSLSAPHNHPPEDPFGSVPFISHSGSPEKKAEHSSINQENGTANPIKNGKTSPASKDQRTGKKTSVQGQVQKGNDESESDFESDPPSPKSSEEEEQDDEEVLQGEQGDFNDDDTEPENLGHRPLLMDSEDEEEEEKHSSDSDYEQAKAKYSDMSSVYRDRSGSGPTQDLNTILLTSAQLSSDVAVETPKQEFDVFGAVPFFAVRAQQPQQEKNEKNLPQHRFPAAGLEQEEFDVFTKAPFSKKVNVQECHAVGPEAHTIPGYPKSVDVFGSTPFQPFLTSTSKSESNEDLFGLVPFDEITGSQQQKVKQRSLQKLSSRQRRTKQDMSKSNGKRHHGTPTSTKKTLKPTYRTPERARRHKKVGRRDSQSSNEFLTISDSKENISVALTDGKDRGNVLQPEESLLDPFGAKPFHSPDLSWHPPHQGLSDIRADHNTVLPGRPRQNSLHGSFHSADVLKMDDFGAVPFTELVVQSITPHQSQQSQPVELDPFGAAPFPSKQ

[6] = molecular target: T6, panel of 442 kinases (Homo sapiens, UniProt P08069); conditions: kinase IGF1R; for remaining activity at 1 µM: read-out: % of control at 1 µM
T6 construct: purchased Ambit Biosciences (scanMAXX KINOMEscan)
T6 sequence (P08069 31-1367): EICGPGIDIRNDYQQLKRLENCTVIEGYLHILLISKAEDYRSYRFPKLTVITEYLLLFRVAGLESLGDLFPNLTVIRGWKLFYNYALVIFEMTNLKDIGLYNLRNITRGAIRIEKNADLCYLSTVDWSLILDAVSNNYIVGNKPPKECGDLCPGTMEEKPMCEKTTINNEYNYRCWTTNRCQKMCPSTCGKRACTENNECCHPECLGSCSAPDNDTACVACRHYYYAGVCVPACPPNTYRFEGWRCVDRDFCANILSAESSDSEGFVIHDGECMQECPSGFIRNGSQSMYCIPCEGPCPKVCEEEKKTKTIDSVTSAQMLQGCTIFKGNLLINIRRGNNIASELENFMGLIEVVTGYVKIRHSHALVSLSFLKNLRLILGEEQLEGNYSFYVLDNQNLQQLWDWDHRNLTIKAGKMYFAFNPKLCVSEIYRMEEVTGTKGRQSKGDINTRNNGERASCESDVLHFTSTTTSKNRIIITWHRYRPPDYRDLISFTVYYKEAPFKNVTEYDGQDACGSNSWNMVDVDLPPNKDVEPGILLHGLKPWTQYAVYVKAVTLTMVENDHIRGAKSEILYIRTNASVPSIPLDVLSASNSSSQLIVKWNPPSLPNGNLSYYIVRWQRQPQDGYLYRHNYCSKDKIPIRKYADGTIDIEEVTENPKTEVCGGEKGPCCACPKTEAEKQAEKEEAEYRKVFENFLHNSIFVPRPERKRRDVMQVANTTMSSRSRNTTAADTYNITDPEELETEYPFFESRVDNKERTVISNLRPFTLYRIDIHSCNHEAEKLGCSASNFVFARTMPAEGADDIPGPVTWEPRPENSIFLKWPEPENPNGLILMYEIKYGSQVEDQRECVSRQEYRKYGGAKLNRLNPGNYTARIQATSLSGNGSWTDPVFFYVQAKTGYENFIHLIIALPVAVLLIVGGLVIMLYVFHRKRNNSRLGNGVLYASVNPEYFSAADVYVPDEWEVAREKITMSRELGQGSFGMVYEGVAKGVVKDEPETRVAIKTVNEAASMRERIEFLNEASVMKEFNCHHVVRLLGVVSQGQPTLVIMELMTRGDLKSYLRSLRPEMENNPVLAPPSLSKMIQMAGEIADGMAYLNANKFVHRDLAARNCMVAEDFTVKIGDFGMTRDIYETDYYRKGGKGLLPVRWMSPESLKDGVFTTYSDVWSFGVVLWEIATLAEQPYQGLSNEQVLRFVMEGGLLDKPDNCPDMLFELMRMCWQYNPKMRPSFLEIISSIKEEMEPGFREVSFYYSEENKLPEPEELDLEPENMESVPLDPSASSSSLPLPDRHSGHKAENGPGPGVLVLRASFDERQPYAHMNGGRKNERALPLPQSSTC

[7] = molecular target: T7, panel of 442 kinases (Homo sapiens, UniProt P00519, H396P); conditions: for remaining activity at 1 µM: read-out: % of control at 1 µM; for remaining activity at 10 µM: read-out: % of control at 10 µM
T7 construct: purchased Ambit Biosciences (scanMAXX KINOMEscan)

[8] = molecular target: T8, panel of 442 kinases (Homo sapiens, UniProt Q9Y2U5); conditions: kinase MAP3K2; for remaining activity at 1 µM: read-out: % of control at 1 µM
T8 construct: purchased Ambit Biosciences (scanMAXX KINOMEscan)
T8 sequence (Q9Y2U5 1-619): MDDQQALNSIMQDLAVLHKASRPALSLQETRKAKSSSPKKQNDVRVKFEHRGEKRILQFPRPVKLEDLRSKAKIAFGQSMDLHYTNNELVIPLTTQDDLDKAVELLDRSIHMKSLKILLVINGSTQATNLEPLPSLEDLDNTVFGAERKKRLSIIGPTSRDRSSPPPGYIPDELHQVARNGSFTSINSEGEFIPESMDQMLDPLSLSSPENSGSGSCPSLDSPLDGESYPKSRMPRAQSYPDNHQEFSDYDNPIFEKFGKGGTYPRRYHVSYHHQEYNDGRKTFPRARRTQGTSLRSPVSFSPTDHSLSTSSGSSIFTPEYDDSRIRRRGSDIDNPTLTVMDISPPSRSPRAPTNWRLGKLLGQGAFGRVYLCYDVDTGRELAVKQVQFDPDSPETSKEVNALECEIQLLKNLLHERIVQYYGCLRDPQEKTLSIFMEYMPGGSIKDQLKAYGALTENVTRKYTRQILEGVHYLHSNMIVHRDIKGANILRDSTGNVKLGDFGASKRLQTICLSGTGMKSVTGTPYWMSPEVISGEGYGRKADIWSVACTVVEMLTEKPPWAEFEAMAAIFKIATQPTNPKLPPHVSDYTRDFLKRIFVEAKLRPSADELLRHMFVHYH

[9] = molecular target: T9, panel of 442 kinases (Homo sapiens, UniProt P42685); conditions: kinase FRK; for remaining activity at 1 µM: read-out: % of control at 1 µM
T9 construct: purchased Ambit Biosciences (scanMAXX KINOMEscan)
T9 sequence (P42685 whole entry): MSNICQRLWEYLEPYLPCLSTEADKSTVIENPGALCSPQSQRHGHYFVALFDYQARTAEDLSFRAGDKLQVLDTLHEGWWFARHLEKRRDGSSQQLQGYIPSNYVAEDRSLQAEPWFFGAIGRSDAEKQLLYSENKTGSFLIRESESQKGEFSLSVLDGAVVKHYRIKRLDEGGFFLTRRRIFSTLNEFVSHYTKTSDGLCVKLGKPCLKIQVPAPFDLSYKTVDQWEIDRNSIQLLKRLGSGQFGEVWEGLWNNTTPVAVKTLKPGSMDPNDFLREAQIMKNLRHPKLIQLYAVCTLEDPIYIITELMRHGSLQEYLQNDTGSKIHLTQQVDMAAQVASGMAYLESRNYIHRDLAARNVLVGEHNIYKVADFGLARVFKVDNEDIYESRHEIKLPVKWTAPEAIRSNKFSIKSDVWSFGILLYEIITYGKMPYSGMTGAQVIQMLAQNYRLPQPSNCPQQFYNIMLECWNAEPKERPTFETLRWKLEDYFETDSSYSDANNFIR

[10] = molecular target: T10, panel of 442 kinases (Homo sapiens, UniProt Q13976); conditions: kinase PRKG1; for remaining activity at 1 µM: read-out: PRKG1 (% of control at 1 µM)
T10 construct: purchased Ambit Biosciences (scanMAXX KINOMEscan)
T10 sequence (Q13976 1-671): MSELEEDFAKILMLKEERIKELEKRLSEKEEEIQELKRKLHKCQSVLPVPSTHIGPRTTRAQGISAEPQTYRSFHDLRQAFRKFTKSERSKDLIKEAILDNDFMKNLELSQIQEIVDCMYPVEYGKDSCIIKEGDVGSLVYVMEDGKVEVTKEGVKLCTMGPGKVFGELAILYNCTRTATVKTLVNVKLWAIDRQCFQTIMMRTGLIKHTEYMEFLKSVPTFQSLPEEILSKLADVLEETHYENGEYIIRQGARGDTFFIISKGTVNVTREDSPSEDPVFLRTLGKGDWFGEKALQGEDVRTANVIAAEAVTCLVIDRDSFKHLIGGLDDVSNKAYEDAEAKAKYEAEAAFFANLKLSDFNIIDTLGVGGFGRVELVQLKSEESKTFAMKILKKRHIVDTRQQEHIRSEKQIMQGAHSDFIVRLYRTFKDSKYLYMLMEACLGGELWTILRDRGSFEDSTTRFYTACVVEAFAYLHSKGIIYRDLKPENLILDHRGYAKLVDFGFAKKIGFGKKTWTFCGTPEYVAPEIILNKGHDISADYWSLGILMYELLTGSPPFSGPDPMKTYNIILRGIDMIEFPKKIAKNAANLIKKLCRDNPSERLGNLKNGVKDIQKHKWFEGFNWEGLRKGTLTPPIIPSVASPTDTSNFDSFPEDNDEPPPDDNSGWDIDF

[11] = molecular target: T11, panel of 442 kinases (Homo sapiens, UniProt Q15208); conditions: kinase NDR1; for remaining activity at 1 µM: read-out: % of control at 1 µM
T11 construct: purchased Ambit Biosciences (scanMAXX KINOMEscan)
T11 sequence (Q15208 whole entry): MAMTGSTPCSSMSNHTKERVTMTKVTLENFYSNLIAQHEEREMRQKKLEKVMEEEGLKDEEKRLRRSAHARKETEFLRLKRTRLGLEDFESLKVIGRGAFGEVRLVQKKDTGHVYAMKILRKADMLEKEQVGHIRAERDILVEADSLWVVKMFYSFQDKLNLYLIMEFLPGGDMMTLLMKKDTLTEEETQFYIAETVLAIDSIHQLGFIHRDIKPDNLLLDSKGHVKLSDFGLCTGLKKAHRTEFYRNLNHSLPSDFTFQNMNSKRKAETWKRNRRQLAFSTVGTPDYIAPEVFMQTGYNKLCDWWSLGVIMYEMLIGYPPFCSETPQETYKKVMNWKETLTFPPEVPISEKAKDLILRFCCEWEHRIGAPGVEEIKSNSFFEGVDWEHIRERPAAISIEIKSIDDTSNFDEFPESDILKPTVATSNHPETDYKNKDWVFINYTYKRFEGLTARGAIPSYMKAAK

[12] = molecular target: T12, panel of 442 kinases (Homo sapiens, UniProt P53671); conditions: kinase LIMK2; for remaining activity at 1 µM: read-out: % of control at 1 µM
T12 construct: purchased Ambit Biosciences (scanMAXX KINOMEscan)

[13] = molecular target: T13, panel of 442 kinases (Homo sapiens, UniProt Q86UX6); conditions: kinase YANK3; for remaining activity at 1 µM: read-out: YANK3 (% of control at 1 µM)
T13 construct: purchased Ambit Biosciences (scanMAXX KINOMEscan)
T13 sequence (Q86UX6 whole entry): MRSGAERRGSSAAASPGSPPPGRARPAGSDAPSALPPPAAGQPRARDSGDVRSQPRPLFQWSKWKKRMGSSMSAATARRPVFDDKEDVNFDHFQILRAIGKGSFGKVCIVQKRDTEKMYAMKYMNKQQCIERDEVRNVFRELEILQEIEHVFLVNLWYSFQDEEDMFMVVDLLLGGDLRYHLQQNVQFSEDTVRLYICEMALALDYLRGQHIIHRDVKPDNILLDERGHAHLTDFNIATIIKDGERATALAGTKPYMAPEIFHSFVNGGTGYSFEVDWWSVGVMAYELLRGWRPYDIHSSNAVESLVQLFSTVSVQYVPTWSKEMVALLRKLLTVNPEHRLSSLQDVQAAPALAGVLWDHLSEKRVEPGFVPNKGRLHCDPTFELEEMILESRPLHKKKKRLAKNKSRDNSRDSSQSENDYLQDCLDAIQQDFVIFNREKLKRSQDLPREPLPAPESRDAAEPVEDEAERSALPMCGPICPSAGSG

[14] = molecular target: T14, panel of 442 kinases (Homo sapiens, UniProt Q13705); conditions: ACVR2B; for remaining activity at 1 µM: read-out: % of control at 1 µM
T14 construct: purchased Ambit Biosciences (scanMAXX KINOMEscan)

[15] = 10 µM, read-out: % of control at 10 µM

SMILES | remaining activity at 1 µM [1] [%] | remaining activity at 1 µM [2] [%] | remaining activity at 1 µM [3] [%] | remaining activity at 1 µM [4] [%] | remaining activity at 1 µM [5] [%] | remaining activity at 1 µM [6] [%] | remaining activity at 1 µM ([7]; ABL1(H396P)-nonphosphorylated) [%] | remaining activity at 1 µM ([7]; ABL1(H396P)-phosphorylated) [%] | remaining activity at 1 µM [8] [%] | remaining activity at 1 µM [9] [%] | remaining activity at 1 µM [10] [%] | remaining activity at 1 µM [11] [%] | remaining activity at 1 µM [12] [%] | remaining activity at 1 µM [13] [%] | remaining activity at 1 µM [14] [%] | other results
Nc1cc(C(F)(F)F)c(-c2cc(N3CCOCC3)nc(N3CCOCC3)n2)cn1 [Buparlisib] | 79 | 90 | 80 | 100 | 98 | 100 | 99 | 96 | 100 | 100 | 77 | 100 | 100 | 94 | 100 | remaining activity at 10 µM [1, 15]: 100%; remaining activity at 10 µM [2, 15]: 85%; remaining activity at 10 µM [3, 15]: 79%; remaining activity at 10 µM [4, 15]: 100%; remaining activity at 10 µM [5, 15]: 100%; remaining activity at 10 µM [6, 15]: 100%; remaining activity at 10 µM ([7]; ABL1(H396P)-nonphosphorylated): 100%; remaining activity at 10 µM ([7]; ABL1(H396P)-phosphorylated): 100%; remaining activity at 10 µM [8, 15]: 100%; remaining activity at 10 µM [9, 15]: 100%; remaining activity at 10 µM ([10]; 10 µM, read-out: PRKG1 (% of control at 10 µM)): 100%; remaining activity at 10 µM [11, 15]: 100%; remaining activity at 10 µM [12, 15]: 100%; remaining activity at 10 µM ([13]; 10 µM, read-out: YANK3 (% of control at 10 µM)): 100%; remaining activity at 10 µM [14, 15]: 100%
Cn1c(=O)n(-c2ccc(C(C)(C)C#N)cc2)c2c3cc(-c4cnc5ccccc5c4)ccc3ncc21 [Dactolisib, 2-methyl-2-[4-(3-methyl-2-oxo-8-quinolin-3-yl-2,3-dihydroimidazo[4,5-c]quinolin-1-yl)-phenyl] propionitrile] | 100 | 96 | 87 | 100 | 53 | 95 | 70 | 79 | 72 | 85 | 95 | 100 | 91 | 88 | 85 | –
COc1ncc(-c2ccc3nccc(-c4ccnnc4)c3c2)cc1NS(=O)(=O)c1ccc(F)cc1F [Omipalisib] | 96 | 51 | 100 | 93 | 82 | 100 | 100 | 100 | 100 | 98 | 100 | 100 | 89 | 100 | 100 | –
FC(F)c1nc2ccccc2n1-c1nc(N2CCOCC2)nc(N2CCOCC2)n1 [ZSTK474, 2-(difluoromethyl)-1-[4,6-di(4-morpholinyl)-1,3,5-triazin-2-yl]-1H-benzimidazole] | 95 | 97 | 100 | 88 | 53 | 100 | 100 | 100 | 74 | 83 | 100 | 95 | 100 | 73 | 89 | –
